According to US20230404953A1, “COMPOUND FOR THE REDUCTION OF WHITE ADIPOSE TISSUE AND THE TREATMENT OF OVERWEIGHT AND OBESITY” (UNIVERSIDAD DE GRANADA, priority 2020, published 2023):

Assays:
[1] = tested on: wild-type mice with a standard diet; assay: Survival and phenotypic state of mice with a standard diet (overweight associated with age); format: in vivo
Description: (§1) For the studies, c57Bl6j strain control mice were used under the protocols approved by the Animal Experimentation Ethics Committee of the University of Granada and registered by the competent body, the General Directorate of Agricultural and Livestock Production of the Ministry of Agriculture, Livestock, Fisheries, and Sustainable Development of the Regional Government of Andalusia, under reference numbers 18/02/2019/016 and 16/09/2019/153.
(§2) In this example intended for long-term evaluation during the aging process, the animals were kept on a standard rodent diet consisting mainly of carbohydrates (66% carbohydrates, 21% proteins, and 13% fats as energy sources), where these mice accumulate fat as they age, imitating a situation of overweight associated with age.
(§3) The experimental treatment was based on the administration of β-RA in the chow feed at a concentration of 0.33% (weight/weight), which represents a dose of 0.25-0.75 g/kg of body weight/day.
(§4) The mice were put under treatment after weaning at 21 days of life, with said treatment being maintained for the entire life of the animals. Analyses were performed at 18 months of life, unless another age is indicated, after 17 months of treatment.
(§5) Survival and body weight were determined through continuous records throughout the life of the animals. Motor coordination and activity were evaluated through the rotarod test. The muscle strength of the hind limbs was evaluated through the grip strength test. The image and the weight of the tissues were taken immediately after sacrificing and dissecting the animals.

3T3L1 preadipocytes = assay: MTT cell proliferation assay in preadipocytes; format: cell-based; conditions: 1 mM β-RA for 5 days, proliferation conditions
Method: (§6) It is known that one of the WAT expansion mechanisms is hyperplasia, i.e., the capacity of WAT to recruit new adipocytes proliferated from precursor cells. To check whether the effect of β-RA on WAT may also constitute a direct action on WAT, the proliferative capacity of a preadipocyte cell line (3T3L1) subjected to treatment with β-RA was determined in in vitro assays, and the results were compared with those obtained in a myoblast cell line (C2C12). This could be used to determine whether the possible effects are specific of a given cell type, excluding those signals and consequences resulting from the physiological context of the in vivo studies. Preadipocyte cell line 3T3L1 and myoblast cell line C2C12 were provided by the Cell Culture Department of the Science Instrumentation Center of the University of Granada. The cells were cultured in glucose-rich DMEM-GlutaMAX supplemented with 10% BCS or FBS, 1% non-essential amino acids MEM, and 1% antibiotic/antimycotic. Treatment with β-RA was administered at a concentration of 1 mM for 5 days. A control group was also treated with vehicle (DMSO) at the same concentration (Luna-Sanchez et al., 2015). The proliferation assay was performed with Vybrant® MTT Cell Proliferation Assay Kit (ThermoFisher Scientific), following the indications of the manufacturing company.

[2] = CAG-CreER^T2; Mclk1^Loxp/Loxp control mice; cited from earlier work
[3] = tested on: white adipose tissue (WAT); assay: CoQ metabolism in white adipose tissue of mice with a HFHS diet; format: in vivo; conditions: HFHS diet + β-RA, 16 weeks
Description: (§7) In this example intended for performing a short-term evaluation in an induced metabolic syndrome model, the animals were fed on a high fat high sucrose (HFHS) diet (32% carbohydrates, 14% proteins, and 54% fats as energy sources), where said mice experience a higher fat gain, imitating a state of obesity.
as §3
(§8) The mice were put under treatment at two months of life, with said treatment being maintained for 4 months. Analyses were performed at 6 months of life, after 4 months of treatment.
(§9) At the level of WAT, CoQ metabolism was evaluated by determining the levels of the major form of CoQ in rodents, i.e., CoQ9, as well as the levels of two limiting enzymes in the CoQ biosynthesis pathway, i.e., the hydroxylase Coq7 and the methyltransferase Coq5. […] These molecular changes translate into morphological changes observed with hematoxylin and eosin staining. […] As a result, the area occupied by adipocytes after treatment with a HFHS diet is larger than after treatment with the standard diet, with the number of adipocytes being smaller. Treatment with β-RA normalizes both the area of the adipocytes (FIG. 16G) and the number thereof (FIG. 16H).

kidney mitochondria = assay: Kidney mitochondrial proteome in mice with a standard diet; format: in vivo
Method: To check if β-RA has effects on energy metabolism in mitochondria, a study was performed on the mitochondrial proteome of kidneys, because the highest β-RA levels are reached in this tissue (see Table 1).
Each kidney was dissected, and the mitochondrial fraction was then isolated by differential centrifugation. Each pellet was resuspended in […] of HEENK medium with a protease inhibitor. The samples were lysed, digested, and treated prior to injection in UHPLC. After quality control, the samples were injected into a UHPLC 1290 system (Agilent Technologies; Santa Clara, USA) coupled to a Q Exactive HF mass spectrometer (Thermo Scientific; Bremen, Germany) in the previously described conditions (Liu F, Lossl P, Rabbitts B M, Balaban R S, Heck A J R (2018) The interactome of intact mitochondria by cross-linking mass spectrometry provides evidence for coexisting respiratory supercomplexes. Mol Cell Proteomics 17: 216-232). The raw files generated were analyzed using MaxQuant v1.6.10 software (Cox J, Mann M (2008) MaxQuant enables high peptide identification rates, individualized p.p.b.-range mass accuracies and proteome-wide protein quantification. Nat Biotechnol 26: 1367-72). The files generated with MaxQuant were analyzed with Perseus: LFQ data was log 2-transformed, and identifications that were present in at least 3 of the 5 replicates were kept for subsequent analyses. For the volcano plot, a P-value threshold of 0.01 and 1 for the LFQ value log 2 difference has been established.

[4] = tested on: wild-type mice with a HFHS diet; assay: Phenotypic state of mice with a high fat high sucrose (HFHS) diet (induced obesity); format: in vivo; conditions: HFHS diet + 0.33% (w/w) β-RA, 16 weeks
Description: as §1, §7, §3, §8, §5

C2C12 myoblasts = assay: MTT cell proliferation assay in myoblasts; format: cell-based; conditions: 1 mM β-RA for 5 days, proliferation conditions
Method: as §6

[5] = Quantification of β-RA levels in mouse tissues by HPLC-UV; format: in vivo; conditions: wild-type mice 3 months of age, β-RA in standard diet at 0.33% (w/w), oral, mean±SD
Method: The experimental treatment was based on the administration of β-RA in the chow feed at a concentration of 0.33% (weight/weight), which represents a dose of 0.25-0.75 g/kg of body weight/day. […] Therefore, β-RA has been chronically administered orally. The quantification of β-RA was carried out by means of HPLC-UV using an Ultra Aqueous C18 column and a mobile phase consisting of 20 mM potassium phosphate and 15% acetonitrile (pH 2.5). The standard curve consisted of β-RA at a concentration of 5, 25, and 100 μg/mL. In this example, β-RA levels were determined in order to know the bioavailability of the compound when it is administered orally. It has been observed that β-RA appears in the brain, kidneys, liver, and skeletal muscle, with the kidneys being the tissues having the highest level of the compound (Table 1).

white adipocytes = assay: Morphology of WAT in mice with a HFHS diet (hematoxylin and eosin staining); format: in vivo; conditions: HFHS diet + β-RA, 16 weeks
Description: as §7, §3, §8, §9

[6] = tested on: wild-type mice with a standard diet; assay: Liver morphology of mice with a standard diet (H&E and Oil Red O staining); format: in vivo; conditions: standard diet + 0.33% (w/w) β-RA; 18 months of age; male and female mice
Description: as §2, §3, §4
In this example, photographs have been taken of the animals and tissues after dissection. The tissues were fixed in formalin and embedded in paraffin. Several sections (4 μm thick) were deparaffinized with xylene and stained with hematoxylin and eosin staining (Luna-Sanchez M, Diaz-Casado E, Barca E, Tejada M A, Montilla-Garcia A, Cobos E J, Escames G, Acuna-Castroviejo D, Quinzii C M, Lopez L C (2015) The clinical heterogeneity of coenzyme Q10 deficiency results from genotypic differences in the Coq9 gene. EMBO Mol Med 7: 670-87). […]

[7] = tested on: wild-type mice with a HFHS diet; assay: Plasma levels of insulin and GIP in mice with a HFHS diet; format: in vivo; conditions: HFHS diet + β-RA, 16 weeks
Description: as §7, §3, §8
Plasma levels of insulin and gastric inhibitory peptide (GIP), also called glucose-dependent insulinotropic peptide, given that both of them tend to increase in cases of obesity with insulin resistance, were determined. […] The administration of β-RA to mice with a HFHS diet reduced the plasma levels of insulin (FIG. 14A) and GIP (FIG. 14B), normalizing said values.

[8] = standard diet + 0.33% (w/w) β-RA, 18 months of age

## O=C(O)c1ccc(O)cc1O [β-RA, 2,4-dihydroxybenzoic acid]
[1]; standard diet + 0.33% (w/w) β-RA from weaning, all stages of development, male and female
  Body weight: reduction of weight
[1]; standard diet + 0.33% (w/w) β-RA from weaning, old-age stage (18-24 months)
  Survival: increase in survival
[1]; [8]
  Amount of abdominal and visceral fat: reduction in the amount of abdominal and visceral fat
  Motor coordination (rotarod test): slight upward trend
  Muscle strength of the hind limbs (grip strength test): remained unchanged and even slightly increased in reference to the total weight of the animal
[1]; standard diet + 0.33% (w/w) β-RA, 18 months of age, hind limbs
  Weight of the skeletal muscles: maintained in the normal range
3T3L1 preadipocytes
  3T3L1 preadipocyte proliferation: induces an inhibition
[2]
  Body weight: reduces the body weight
[3]
  Levels of CoQ9 in WAT: increased said levels, achieving the normalization thereof
  Levels of biosynthetic protein Coq5 in WAT: increase
  Levels of biosynthetic protein Coq7 in WAT: increase in the levels of Coq7
Kidney mitochondria; mice with standard diet + β-RA
  Changes in the mitochondrial proteome: proteins of acetyl-CoA production from pyruvate and of the Krebs cycle: an increase in proteins linked to the metabolic pathways for the production of acetyl-CoA from pyruvate and of the tricarboxylic acid cycle or Krebs cycle
Kidney mitochondria; β-RA treated vs untreated mice, Aconitase 2 (Q99KI0)
  Expr Fold Change, ACO2: 1.383
Kidney mitochondria; β-RA treated vs untreated mice, Succinate CoA ligase subunit alpha (Q9WUM5)
  Expr Fold Change, SUCLG1: 1.301
Kidney mitochondria; β-RA treated vs untreated mice, Succinate CoA ligase subunit beta (Q9Z2I8)
  Expr Fold Change, SUCLG2: 1.189
Kidney mitochondria; β-RA treated vs untreated mice, citrate synthase (Q9CZU6)
  Expr Fold Change, CS: 1.485
Kidney mitochondria; β-RA treated vs untreated mice, dihydrolipoamide S-acetyltransferase (Q8BMF4)
  Expr Fold Change, DLAT: 1.638
Kidney mitochondria; β-RA treated vs untreated mice, dihydrolipoamide S-succinyltransferase (Q9D2G2)
  Expr Fold Change, DLST: 2.316
Kidney mitochondria; β-RA treated vs untreated mice, dihydrolipoamide dehydrogenase (O08749)
  Expr Fold Change, DLD: 1.831
Kidney mitochondria; β-RA treated vs untreated mice, isocitrate dehydrogenase (NAD(+)) 3 catalytic subunit alpha (Q9D6R2)
  Expr Fold Change, IDH3A: 1.72
Kidney mitochondria; β-RA treated vs untreated mice, isocitrate dehydrogenase (NAD(+)) 3 non-catalytic subunit beta (Q91VA7)
  Expr Fold Change, IDH3B: 1.727
Kidney mitochondria; β-RA treated vs untreated mice, isocitrate dehydrogenase (NAD(+)) 3 non-catalytic subunit gamma (P70404)
  Expr Fold Change, IDH3G: 1.573
Kidney mitochondria; β-RA treated vs untreated mice, malate dehydrogenase 2 (P08249)
  Expr Fold Change, MDH2: 1.397
Kidney mitochondria; β-RA treated vs untreated mice, oxoglutarate dehydrogenase (Q60597)
  Expr Fold Change, OGDH: 2.05
Kidney mitochondria; β-RA treated vs untreated mice, pyruvate dehydrogenase E1 subunit alpha 1 (P35486)
  Expr Fold Change, PDHA1: 1.61
Kidney mitochondria; β-RA treated vs untreated mice, pyruvate dehydrogenase E1 subunit beta (Q9D051)
  Expr Fold Change, PDHB: 1.711
[4]
  Abdominal and visceral fat: reduction of abdominal and visceral fat
  Skeletal muscle mass: do not cause any changes
[4]; male and female
  Body weight (increase induced by HFHS diet): counteracted said increase in weight
C2C12 myoblasts
  Proliferative capacity of C2C12 myoblasts: did not have a significant effect
[5]; brain
  β-RA levels, Brain: 1.26 ± 0.58 ng of β-RA/mg of protein
[5]; kidney
  β-RA levels, Kidney: 43.02 ± 16.51 ng of β-RA/mg of protein
[5]; liver
  β-RA levels, Liver: 7.04 ± 2.96 ng of β-RA/mg of protein
[5]; skeletal muscle
  β-RA levels, Muscle: 20.28 ± 9.39 ng of β-RA/mg of protein
White adipocytes
  Area of the adipocytes: normalizes
  Number of adipocytes per area: normalizes
White adipocytes; H&E staining
  Hypertrophy of WAT (white adipocytes): prevents hypertrophy of WAT
[6]
  Onset of hepatic steatosis (lipid droplets in liver): prevented
[7]
  Plasma levels of gastric inhibitory peptide (GIP): reduced
  Plasma levels of insulin: reduced
